Test [1] addresses forkhead transcription factor, Foxo3a (Homo sapiens, UniProt O43524). As to conditions: published by Kawahara et al., 2015; cited from earlier work.
The subject of test [2] is Schizosaccharomyces pombe. As to the kind of experiment: Filter disc assay on a lawn of S. pombe. As to conditions: for bioactivity against S. pombe (haloes/zones of inhibition), relative: zinc complexed versus zinc-free form, tested in parallel. The class given is cell-based. How it is done:
The silica powder with the S149 compound adsorbed onto it was divided into two equal portions of ˜7.5 g and each portion was used in normal phase “flash” chromatography using a Biotage™ Isolera™ machine and a Biotage™ KP-Sil 50 g column. A chloroform-methanol gradient was used to elute the bound material from the silica in which the percentage of methanol went from 0%-100%. No formic acid was added to the solvents as this degrades the bioactive compound. The eluate from the column was fractionated and the presence of the bioactive compound (S149) determined using the “Filter disc assay” method as described in the “Materials and Methods” of Lewis et al., 2017. The active fractions eluted from the two normal phase chromatography columns were pooled, and after removal of the solvent using a GeneVac™ Series U system equipped with a GeneVac™ VC3000TA condenser unit, the dried material was resuspended in 5 ml of methanol which was loaded onto a size exclusion column. The column was run at a flow rate of 1 ml/min with 1,200 ml of methanol and the eluate fractionated. The bioactive fractions, as determined using the “Filter disc assay” method as described in the “Materials and Methods” of Lewis et al., 2017, were pooled to give ˜15 ml of material which was diluted with 60 ml of water to give 75 ml of a 20% methanol solution. This was used in reverse phase chromatography using a Biotage™ Isolera™ chromatography machine in which the bioactive material was loaded by injection onto a C18 SNAP Ultra 12 g Biotage™ column and eluted using an acetonitrile-water gradient where the percentage of acetonitrile was increased from 20%-100%.
An example of the u.v. absorbance pattern (λ=254 nm) is shown in FIG. 1 and indicates the presence of four peaks labelled 0-3. An integrated fraction collector was used to peak-pick material and collect column eluate corresponding to the peaks which were then bioassayed using the “Filter disc assay” method as described in the “Materials and Methods” of Lewis el al., 2017.

Chain of forkhead transcription factor, Foxo3a (O43524 whole entry): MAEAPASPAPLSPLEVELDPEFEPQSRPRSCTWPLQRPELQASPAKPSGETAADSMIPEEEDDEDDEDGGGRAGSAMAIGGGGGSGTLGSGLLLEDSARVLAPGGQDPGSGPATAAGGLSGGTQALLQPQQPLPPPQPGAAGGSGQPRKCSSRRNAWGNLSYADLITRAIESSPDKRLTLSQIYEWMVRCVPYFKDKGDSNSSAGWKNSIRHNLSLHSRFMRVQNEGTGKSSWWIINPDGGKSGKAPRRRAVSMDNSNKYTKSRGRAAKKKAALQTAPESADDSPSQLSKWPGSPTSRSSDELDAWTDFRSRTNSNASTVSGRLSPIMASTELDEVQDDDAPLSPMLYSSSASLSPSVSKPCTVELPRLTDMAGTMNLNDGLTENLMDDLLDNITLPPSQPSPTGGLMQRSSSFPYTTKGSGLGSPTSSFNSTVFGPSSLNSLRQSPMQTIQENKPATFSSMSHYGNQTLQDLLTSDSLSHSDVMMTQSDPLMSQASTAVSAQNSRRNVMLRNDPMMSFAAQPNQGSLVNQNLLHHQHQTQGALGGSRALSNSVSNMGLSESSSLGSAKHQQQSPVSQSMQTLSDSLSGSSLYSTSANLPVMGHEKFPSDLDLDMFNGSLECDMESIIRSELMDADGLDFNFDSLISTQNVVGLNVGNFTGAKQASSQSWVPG

For the molecule `CC(=O)O[C@@H]([C@H](C[C@@H](O)CN(O)N=O)NC(=O)[C@H]1N=C([C@H](C)N(C)C)O[C@@H]1C)C(C)(C)C(=O)O[C@H](C(=O)C1=C(O)[C@H](C)N(C)C1=O)C(C)C` [JBIR-142], the “inhibition of the transcriptional activity of Foxo3a” value in test [1] is recorded as “possess the ability to inhibit the transcriptional activity”.
`CC(=O)O[C@@H]([C@H](CCCN(O)N=O)NC(=O)[C@H]1N=C([C@H](C)N(C)C)O[C@@H]1C)C(C)(C)C(=O)O[C@H](C(=O)C1=C(O)[C@H](C)N(C)C1=O)C(C)C` [JBIR-141]: the “time for haloes in the S. pombe lawn around impregnated discs to develop” value in test [2] (filter discs impregnated with HPLC peak material) was ~48 h. Moreover, the entries for the “bioactivity against S. pombe (haloes/zones of inhibition), relative” value in test [2], in test [2] (listed as JBIR 141) and in test [2] (listed as Peak 0) were “not as bioactive as the zinc complexed form”, “not as bioactive as the zinc complexed form” and “lower than the bioactivity of the material from the other peaks”, respectively. Moreover, the “inhibition of the transcriptional activity of Foxo3a” value in test [1] is “possess the ability to inhibit the transcriptional activity”.

(Values after US20230181745A1, “ZINC COMPLEXES AND THEIR USES” (Demuris Limited, priority 2020, published 2023).)
